According to patent US9055743B2, “Alpha, beta-unsaturated imines” (BAYER INTELLECTUAL PROPERTY GMBH, priority 2010, dated 2015):

Columns and labels:
Assay type in all cases: in vivo
[1] = tested on: Boophilus microplus strain Parkhurst, SP-resistant; test: Boophilus microplus test (DIP); conditions: 100 ppm, after 7 days
Protocol: Boophilus microplus Test (DIP) Test Animals: Adult Fat Females of the Boophilus microplus Strain Parkhurst—SP-Resistant) Solvent: Dimethyl Sulphoxide
10 mg of active compound are dissolved in 0.5 ml of dimethyl sulphoxide. To produce a suitable formulation, the active compound solution is diluted with water to the particular desired concentration.
This active compound preparation is pipetted into tubes. 8-10 ticks are transferred into a further tube provided with holes. The tube is dipped into the active compound preparation, with all the ticks being wetted completely. After the liquid has run off, the ticks are transferred to filter discs in plastic dishes and kept in a climatized room. After 7 days, the activity is checked for deposition of fertile eggs. Eggs whose fertility is not visible from the outside are kept in glass tubes in a climatized cupboard until the larvae have hatched. An activity of 100% means that no tick has laid fertile eggs.

[2] = tested on: bed bugs of the species Cimex lectularius; test: whole plant or invertebrate; conditions: for mortality at 100 mg/m2: Cimex lectularius, read-out: activity (mortality in %)
Protocol: Cimex Test (CIMXLE Surface Treatment)
To produce a suitable preparation of the active compound, the active compound is dissolved in acetone (2 mg/ml). The active compound preparation is pipetted onto a glazed tile and, after drying, adult bed bugs of the species Cimex lectularius are placed onto the treated tile. The exposition time is 30 minutes.
Two hours after contact to the treated surface, the knock-down proportion of the test animals in % is determined
24 hours after contact to the treated surface, the mortality in % is determined. Here, 100% means that all bed bugs have been killed; 0% means that none of the bed bugs have been killed.

[3] = tested on: cat fleas (Ctenocephalides felis, fully sensitive laboratory strain); test: Contact test against fleas in-vitro (CTECFE contact); conditions: for activity against cat fleas: 500 g/ha, after 48 h
Summary of the method: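 Test tubes coated from acetone solutions by rotation, top concentration 500 g/ha (500 μg/dm^2) on tube surface, serial 1:5 dilutions. 10-20 CO2-anesthetized adult fleas held at room temperature for 24 and 48 h. Activity scored versus acetone control: knock-down or death of all fleas = 100%.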

[4] = tested on: brown dog ticks (Rhipicephalus sanguineus, fully sensitive laboratory strain); test: Contact test against ticks in vitro (RHIPSA contact); conditions: active compound concentration 4 g/ha
Protocol: Contact Test Against Ticks In Vitro (RHIPSA Contact)
An amount of 0.9 mg of active compound is weighed out, and 1 ml of acetone is added.
Of this acetone solution, either 250 μl are transferred directly into roll-necked test tubes or an aliquot is diluted with 4 parts of acetone 1:5. For its part, 250 μl of this dilution are pipetted into roll-necked test tubes, or the dilution is diluted further, etc., until the desired number of dilution steps is reached.
The roll-necked test tubes containing the solution of the active compound in acetone are immediately coated in a fume cupboard by 2 h of swing rotation at 30 rpm. After evaporation of the solvent, the active compound contained in the acetone gives, at the highest concentration tested, an active compound content of 500 g/ha (or […]) on the surface of the test tube.
5-10 Adult brown dog ticks (Rhipicephalus sanguineus, fully sensitive laboratory strain) are transferred into the test tubes prepared in this manner, and the test tubes are closed with a plastic roll-necked lid provided with fine holes.
The test tubes are stored vertically at room temperature and humidity for 24 or 48 h in the dark. After 24 and 48 h, the activity of the active compound applied is determined by comparison with an acetone-treated control. […]

Compound | activity (100% = no tick has laid fertile eggs) [1] | mortality at 100 mg/m2 [2] | activity against cat fleas [3] | Kill rate in % after 2 days [4] | knock-down activity ([2]; 100 mg/m^2, two hours after contact, exposition 30 minutes) | Kill rate in % after 2 days ([3]; active compound concentration 0.032 g/ha)
Cc1ccc(N=C2C(=CSc3ccc(F)cc3)CCc3cc(F)ccc32)cc1 [Example 1-16] | 100% | 90% | 100% |  |  | 
Cc1ccc(N=C2C(=CSc3ccc(F)cc3)CSc3ccccc32)cc1 [Example 1-35] |  |  | 100% | 100% |  | 
Cc1ccc(N=C2C(=CSc3ccc(F)cc3)C(C)c3ccccc32)cc1 (stereo not drawn) [Example 1-57] |  |  | 100% |  |  | 
Cc1ccc(N=C2C(=CSc3ccc(F)cc3)CCc3ccccc32)cc1 [Example 1-9] |  | 100% | 100% |  | 80% | 100%
Cc1ccc(N=C2C(=CSc3ccc(C)cc3)CCc3ccccc32)cc1 [Example 1-28] | 100% |  | 100% |  |  | 
